Results taken from the NIST ThermoML archive (doi:10.1021/je100057b).
Where “and” joins values, the source holds several entries; their conditions need not be identical. Equal entries are not always repeated. ± gives the expanded uncertainty stated by the source.

Settings: Liquid, Falling or rolling sphere viscometry

CCCCCCC(=O)OCC(COCC(COC(=O)CCCCCC)(COC(=O)CCCCCC)COC(=O)CCCCCC)(COC(=O)CCCCCC)COC(=O)CCCCCC [dipentaerythritol hexaheptanoate]
Settings | viscosity
283.15 K, 101.33 kPa | 260.7 ± 18 mPa·s and 259.1 ± 18 mPa·s
288.15 K, 101.33 kPa | 191.1 ± 12 mPa·s and 190 ± 12 mPa·s
293.15 K, 101.33 kPa | 143.1 ± 8.2 mPa·s and 142.2 ± 8.1 mPa·s
298.15 K, 101.33 kPa | 109.2 ± 5.8 mPa·s and 108.5 ± 5.7 mPa·s
303.15 K, 100 kPa | 86.3 ± 4.3 mPa·s
303.15 K, 101.33 kPa | 84.89 ± 4.2 mPa·s and 84.39 ± 4.2 mPa·s
303.15 K, 1000 kPa | 87.7 ± 4.4 mPa·s
303.15 K, 5000 kPa | 93.9 ± 4.8 mPa·s
303.15 K, 10000 kPa | 102 ± 5 mPa·s
303.15 K, 20000 kPa | 121 ± 7 mPa·s
303.15 K, 30000 kPa | 142 ± 8 mPa·s
303.15 K, 40000 kPa | 167 ± 10 mPa·s
303.15 K, 50000 kPa | 194 ± 12 mPa·s
303.15 K, 60000 kPa | 226 ± 15 mPa·s
308.15 K, 101.33 kPa | 67.04 ± 3.2 mPa·s and 66.67 ± 3.2 mPa·s
313.15 K, 100 kPa | 55.8 ± 2.7 mPa·s
313.15 K, 101.33 kPa | 53.73 ± 2.5 mPa·s and 53.45 ± 2.5 mPa·s
313.15 K, 1000 kPa | 56.6 ± 2.7 mPa·s
313.15 K, 5000 kPa | 60.3 ± 2.9 mPa·s
313.15 K, 10000 kPa | 65.3 ± 3.1 mPa·s
313.15 K, 20000 kPa | 76.3 ± 3.7 mPa·s
313.15 K, 30000 kPa | 88.9 ± 4.5 mPa·s
313.15 K, 40000 kPa | 103 ± 5 mPa·s
313.15 K, 50000 kPa | 119 ± 6 mPa·s
313.15 K, 60000 kPa | 138 ± 8 mPa·s
318.15 K, 101.33 kPa | 43.66 ± 2.1 mPa·s and 43.45 ± 2.1 mPa·s
323.15 K, 101.33 kPa | 35.93 ± 1.7 mPa·s and 35.77 ± 1.7 mPa·s
328.15 K, 101.33 kPa | 29.91 ± 1.4 mPa·s and 29.79 ± 1.4 mPa·s
333.15 K, 100 kPa | 25.5 ± 1.2 mPa·s
333.15 K, 101.33 kPa | 25.18 ± 1.2 mPa·s and 25.07 ± 1.2 mPa·s
333.15 K, 1000 kPa | 25.9 ± 1.3 mPa·s
333.15 K, 5000 kPa | 27.5 ± 1.3 mPa·s
333.15 K, 10000 kPa | 29.6 ± 1.4 mPa·s
333.15 K, 20000 kPa | 34.3 ± 1.6 mPa·s
333.15 K, 30000 kPa | 39.5 ± 1.9 mPa·s
333.15 K, 40000 kPa | 45.3 ± 2.2 mPa·s
333.15 K, 50000 kPa | 51.7 ± 2.4 mPa·s
333.15 K, 60000 kPa | 58.8 ± 2.8 mPa·s
338.15 K, 101.33 kPa | 21.39 ± 1 mPa·s and 21.31 ± 1 mPa·s
343.15 K, 101.33 kPa | 18.32 ± 0.87 mPa·s and 18.27 ± 0.87 mPa·s
348.15 K, 101.33 kPa | 15.82 ± 0.75 mPa·s and 15.79 ± 0.75 mPa·s
353.15 K, 100 kPa | 13.8 ± 0.7 mPa·s
353.15 K, 101.33 kPa | 13.77 ± 0.66 mPa·s and 13.75 ± 0.66 mPa·s
353.15 K, 1000 kPa | 14 ± 0.7 mPa·s
353.15 K, 5000 kPa | 14.8 ± 0.7 mPa·s
353.15 K, 10000 kPa | 15.9 ± 0.8 mPa·s
353.15 K, 20000 kPa | 18.2 ± 0.9 mPa·s
353.15 K, 30000 kPa | 20.8 ± 1 mPa·s
353.15 K, 40000 kPa | 23.6 ± 1.1 mPa·s
353.15 K, 50000 kPa | 26.6 ± 1.3 mPa·s
353.15 K, 60000 kPa | 30 ± 1.4 mPa·s
358.15 K, 101.33 kPa | 12.06 ± 0.58 mPa·s
363.15 K, 101.33 kPa | 10.64 ± 0.51 mPa·s
368.15 K, 101.33 kPa | 9.44 ± 0.45 mPa·s and 9.45 ± 0.45 mPa·s
373.15 K, 100 kPa | 8.46 ± 0.4 mPa·s
373.15 K, 101.33 kPa | 8.42 ± 0.4 mPa·s and 8.43 ± 0.4 mPa·s
373.15 K, 1000 kPa | 8.56 ± 0.41 mPa·s
373.15 K, 5000 kPa | 9.04 ± 0.43 mPa·s
373.15 K, 10000 kPa | 9.66 ± 0.46 mPa·s
373.15 K, 20000 kPa | 11 ± 0.5 mPa·s
373.15 K, 30000 kPa | 12.4 ± 0.6 mPa·s
373.15 K, 40000 kPa | 14 ± 0.7 mPa·s
373.15 K, 50000 kPa | 15.7 ± 0.8 mPa·s
373.15 K, 60000 kPa | 17.5 ± 0.8 mPa·s

CCCCC(=O)OCC(COCC(COC(=O)CCCC)(COC(=O)CCCC)COC(=O)CCCC)(COC(=O)CCCC)COC(=O)CCCC
Settings | viscosity
283.15 K, 101.33 kPa | 259 ± 18 mPa·s and 257.9 ± 18 mPa·s
288.15 K, 101.33 kPa | 189.2 ± 12 mPa·s and 188.5 ± 12 mPa·s
293.15 K, 101.33 kPa | 141.2 ± 8 mPa·s and 140.8 ± 8 mPa·s
298.15 K, 101.33 kPa | 107.6 ± 5.7 mPa·s and 107.3 ± 5.7 mPa·s
303.15 K, 100 kPa | 85.9 ± 4.3 mPa·s
303.15 K, 101.33 kPa | 83.52 ± 4.2 mPa·s and 83.31 ± 4.1 mPa·s
303.15 K, 1000 kPa | 87.2 ± 4.4 mPa·s
303.15 K, 5000 kPa | 93.2 ± 4.7 mPa·s
303.15 K, 10000 kPa | 101 ± 5 mPa·s
303.15 K, 20000 kPa | 119 ± 6 mPa·s
303.15 K, 30000 kPa | 139 ± 8 mPa·s
303.15 K, 40000 kPa | 163 ± 10 mPa·s
303.15 K, 50000 kPa | 189 ± 12 mPa·s
303.15 K, 60000 kPa | 219 ± 14 mPa·s
308.15 K, 101.33 kPa | 65.88 ± 3.2 mPa·s and 65.72 ± 3.1 mPa·s
313.15 K, 100 kPa | 54.3 ± 2.6 mPa·s
313.15 K, 101.33 kPa | 52.73 ± 2.5 mPa·s and 52.64 ± 2.5 mPa·s
313.15 K, 1000 kPa | 55.1 ± 2.6 mPa·s
313.15 K, 5000 kPa | 58.8 ± 2.8 mPa·s
313.15 K, 10000 kPa | 63.6 ± 3 mPa·s
313.15 K, 20000 kPa | 74.4 ± 3.6 mPa·s
313.15 K, 30000 kPa | 86.6 ± 4.3 mPa·s
313.15 K, 40000 kPa | 100 ± 5 mPa·s
313.15 K, 50000 kPa | 116 ± 6 mPa·s
313.15 K, 60000 kPa | 133 ± 7 mPa·s
318.15 K, 101.33 kPa | 42.8 ± 2 mPa·s and 42.75 ± 2 mPa·s
323.15 K, 101.33 kPa | 35.18 ± 1.7 mPa·s and 35.15 ± 1.7 mPa·s
328.15 K, 101.33 kPa | 29.24 ± 1.4 mPa·s and 29.25 ± 1.4 mPa·s
333.15 K, 100 kPa | 25 ± 1.2 mPa·s
333.15 K, 101.33 kPa | 24.55 ± 1.2 mPa·s and 24.59 ± 1.2 mPa·s
333.15 K, 1000 kPa | 25.4 ± 1.2 mPa·s
333.15 K, 5000 kPa | 26.9 ± 1.3 mPa·s
333.15 K, 10000 kPa | 29 ± 1.4 mPa·s
333.15 K, 20000 kPa | 33.6 ± 1.6 mPa·s
333.15 K, 30000 kPa | 38.6 ± 1.8 mPa·s
333.15 K, 40000 kPa | 44.2 ± 2.1 mPa·s
333.15 K, 50000 kPa | 50.3 ± 2.4 mPa·s
333.15 K, 60000 kPa | 56.9 ± 2.7 mPa·s
338.15 K, 101.33 kPa | 20.81 ± 0.99 mPa·s and 20.88 ± 1 mPa·s
343.15 K, 101.33 kPa | 17.79 ± 0.85 mPa·s and 17.88 ± 0.85 mPa·s
348.15 K, 101.33 kPa | 15.34 ± 0.73 mPa·s and 15.44 ± 0.74 mPa·s
353.15 K, 100 kPa | 13.5 ± 0.7 mPa·s
353.15 K, 101.33 kPa | 13.33 ± 0.64 mPa·s and 13.42 ± 0.64 mPa·s
353.15 K, 1000 kPa | 13.6 ± 0.7 mPa·s
353.15 K, 5000 kPa | 14.4 ± 0.7 mPa·s
353.15 K, 10000 kPa | 15.45 ± 0.74 mPa·s
353.15 K, 20000 kPa | 17.7 ± 0.8 mPa·s
353.15 K, 30000 kPa | 20.1 ± 1 mPa·s
353.15 K, 40000 kPa | 22.8 ± 1.1 mPa·s
353.15 K, 50000 kPa | 25.7 ± 1.2 mPa·s
353.15 K, 60000 kPa | 28.8 ± 1.4 mPa·s
358.15 K, 101.33 kPa | 11.66 ± 0.56 mPa·s and 11.76 ± 0.56 mPa·s
363.15 K, 101.33 kPa | 10.26 ± 0.49 mPa·s and 10.36 ± 0.49 mPa·s
368.15 K, 101.33 kPa | 9.08 ± 0.43 mPa·s and 9.18 ± 0.44 mPa·s
373.15 K, 100 kPa | 8.22 ± 0.39 mPa·s
373.15 K, 101.33 kPa | 8.09 ± 0.39 mPa·s and 8.18 ± 0.39 mPa·s
373.15 K, 1000 kPa | 8.32 ± 0.4 mPa·s
373.15 K, 5000 kPa | 8.78 ± 0.42 mPa·s
373.15 K, 10000 kPa | 9.38 ± 0.45 mPa·s
373.15 K, 20000 kPa | 10.6 ± 0.5 mPa·s
373.15 K, 30000 kPa | 12 ± 0.6 mPa·s
373.15 K, 40000 kPa | 13.5 ± 0.6 mPa·s
373.15 K, 50000 kPa | 15.2 ± 0.7 mPa·s
373.15 K, 60000 kPa | 16.9 ± 0.8 mPa·s
